Our source for the IC50 values is patent publication US8362012B2, “Benzoxazine benzimidazole derivative, a pharmaceutical composition comprising the same, and a use thereof” (Daewoong Pharmaceutical Co., Ltd., priority 2008, dated 2013).

The target in this assay is T1, human vanilloid-1 (hVR-1) in hVR-1-HEK293 cell line (Homo sapiens, UniProt Q8NER1).
T1 construct: expressed in transfected cells; host or cells: HEK293 Tet-on strain, doxycycline-induced
The assay is described as follows: Inhibitory effect on calcium influx via a vanilloid receptor (capsaicin-stimulated, Fluo-3/AM). It counts as cell-based. The settings on record: hVR-1-HEK293 cells, 1 μM of capsaicin, compounds 0.015˜2000 nM; read-out: I.A. (inhibitory activity), IC50 on intracellular calcium influx. As to the method: The cell line can modulate the expression of VR-1, depending on whether doxycycline, a derivative of tetracycline, is present or not. […] Specifically, hVR-1-HEK293 cells were cultured in a T75 flask to about 80% confluency, separated from the flask by treating with trypsin solution, and then collected by centrifugation. The cells were suspended in a medium containing 1 μg/mL of doxycycline, and the resulting suspension was diluted to a concentration of 2˜4×10^5 cells/mL […], of the cell suspension was placed in each well of a 96-well black plate. The cells were cultured in 5% CO2 incubator at 37° C. for 2 days, and used for the following procedure. […] The cells prepared in 1) above were cultured at 37° C. for 90 min in a solution containing Fluo-3/AM, a fluorescent dye, as a calcium indicator so that the fluorescent dye was permeated into the cells. […] In order to stimulate calcium influx through a vanilloid receptor, the cells were treated with 1 μM of capsaicin. […] The obtained data were input to the Hill equation represented by the following formula I and the values were analyzed: Intracellular calcium influx= [(fluorescent intensity of experimental group−fluorescent intensity of background)/(fluorescent intensity of positive control−fluorescent intensity of background)]*100 [Formula I] The inhibitory activities were evaluated from the obtained intracellular calcium influx values according to the following criteria.
(In general: Calcium assays in cells follow changes in intracellular calcium, usually with a dye or a luminescent sensor.)

T1 sequence (Q8NER1 whole entry): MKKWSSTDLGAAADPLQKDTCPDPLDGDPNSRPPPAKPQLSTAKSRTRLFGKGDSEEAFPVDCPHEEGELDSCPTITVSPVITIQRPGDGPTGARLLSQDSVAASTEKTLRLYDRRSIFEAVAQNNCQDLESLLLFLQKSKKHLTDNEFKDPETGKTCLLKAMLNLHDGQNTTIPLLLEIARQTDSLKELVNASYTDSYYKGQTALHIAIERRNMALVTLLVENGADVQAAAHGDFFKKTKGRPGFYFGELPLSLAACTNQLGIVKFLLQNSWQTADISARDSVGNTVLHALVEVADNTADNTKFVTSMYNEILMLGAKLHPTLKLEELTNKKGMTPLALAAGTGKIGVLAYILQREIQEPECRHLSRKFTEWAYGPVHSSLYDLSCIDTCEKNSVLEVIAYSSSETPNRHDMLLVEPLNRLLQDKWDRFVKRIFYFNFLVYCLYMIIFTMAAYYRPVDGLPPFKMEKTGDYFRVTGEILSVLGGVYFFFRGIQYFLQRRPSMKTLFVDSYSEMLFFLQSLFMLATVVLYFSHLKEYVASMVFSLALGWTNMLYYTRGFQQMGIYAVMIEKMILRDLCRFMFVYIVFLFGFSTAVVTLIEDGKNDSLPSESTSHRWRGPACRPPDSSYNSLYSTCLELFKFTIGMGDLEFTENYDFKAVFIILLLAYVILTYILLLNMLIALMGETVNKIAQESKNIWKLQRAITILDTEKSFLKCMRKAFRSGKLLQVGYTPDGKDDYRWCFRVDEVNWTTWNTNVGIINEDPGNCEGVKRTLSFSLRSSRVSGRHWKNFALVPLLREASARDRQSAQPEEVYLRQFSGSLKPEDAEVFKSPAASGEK

As for `CC(C)(C)c1ccc2nc(-c3cccc4c3OCCN4c3ncccc3Cl)[nH]c2c1` [Example 6, 8-(6-tert-butyl-1H-benzimidazol-2-yl)-4-(3-chloro-pyridin-2-yl)-3,4-dihydro-2H-benzo[1,4]oxazine], the IC50 (as a rule, the concentration that gives 50% inhibition) lay in the range of 101 to 500 nM. As for `CC(C)(C)c1ccc2nc(-c3cccc4c3OCCN4c3ncccc3C(F)(F)F)[nH]c2c1` [Example 7, 8-(6-tert-butyl-1H-benzimidazol-2-yl)-4-(3-trifluoromethyl-pyridin-2-yl)-3,4-dihydro-2H-benzo[1,4]oxazine], the IC50 was more than 1000 nM. For `CC(C)(C)c1ccc2nc(-c3cccc4c3OCCN4c3ccc(C(F)(F)F)cn3)[nH]c2c1` [Example 8, 8-(6-tert-butyl-1H-benzimidazol-2-yl)-4-(5-trifluoromethyl-pyridin-2-yl)-3,4-dihydro-2H-benzo[1,4]oxazine], the concentration for half-maximal inhibition (IC50) lay in the range of 101 to 500 nM. For the compound `CC(C)(C)c1ccc2nc(-c3cccc4c3OCCN4c3ncc(C(F)(F)F)cc3Cl)[nH]c2c1` [Example 9, 8-(6-tert-butyl-1H-benzimidazol-2-yl)-4-(3-chloro-5-trifluoromethyl-pyridin-2-yl)-3,4-dihydro-2H-benzo[1,4]oxazine], the IC50 was in the range of 101 to 500 nM.

With `Cc1ccc(N2CCOc3c(-c4nc5cc(C(C)(C)C)ccc5[nH]4)cccc32)nc1` [Example 10, 8-(5-tert-butyl-1H-benzimidazol-2-yl)-4-(5-methyl-pyridin-2-yl)-3,4-dihydro-2H-benzo[1,4]oxazine], the IC50 was less than 20 nM. The figure for `CC(C)(C)c1ccc2[nH]c(-c3cccc4c3OCCN4c3ncc(Cl)cc3Cl)nc2c1` [Example 11, 8-(5-tert-butyl-1H-benzimidazol-2-yl)-4-(3,5-dichloro-pyridin-2-yl)-3,4-dihydro-2H-benzo[1,4]oxazine] is 20 to 100 nM; for `CC(C)(C)c1ccc2[nH]c(-c3cccc4c3OCCN4c3ccccn3)nc2c1` [Example 12, 8-(5-tert-butyl-1H-benzimidazol-2-yl)-4-pyridin-2-yl-3,4-dihydro-2H-benzo[1,4]oxazine] it is 101 to 500 nM; for `CC(C)(C)c1ccc2[nH]c(-c3cccc4c3OCCN4c3ccc(Br)cn3)nc2c1` [Example 13, 4-(5-bromo-pyridin-2-yl)-8-(5-tert-butyl-1H-benzimidazol-2-yl)-3,4-dihydro-2H-benzo[1,4]oxazine] it is 20 to 100 nM. With `CC(C)(C)c1ccc2[nH]c(-c3cccc4c3OCCN4c3ccc(Cl)cn3)nc2c1` [Example 14, 8-(5-tert-butyl-1H-benzimidazol-2-yl)-4-(5-chloro-pyridin-2-yl)-3,4-dihydro-2H-benzo[1,4]oxazine], the half-maximal inhibitory concentration (IC50) was 20 to 100 nM. The figure for `CC(C)(C)c1ccc2[nH]c(-c3cccc4c3OCCN4c3ccc(CO)cn3)nc2c1` [Example 15, 6-[8-(5-tert-butyl-1H-benzimidazol-2-yl)-2,3-dihydro-benzo[1,4]oxazin-4-yl]-pyridin-3-yl-methanol] is 101 to 500 nM; for `FC(F)(F)c1ccc2nc(-c3cccc4c3OCCN4c3ncccc3Cl)[nH]c2c1` [Example 16, 4-(3-chloro-pyridin-2-yl)-8-(6-trifluoromethyl-1H-benzimidazol-2-yl)-3,4-dihydro-2H-benzo[1,4]oxazine] it is 101 to 500 nM.

Regarding `FC(F)(F)c1ccc2nc(-c3cccc4c3OCCN4c3ncccc3C(F)(F)F)[nH]c2c1` [Example 17, 8-(6-trifluoromethyl-1H-benzimidazol-2-yl)-4-(3-trifluoromethyl-pyridin-2-yl)-3,4-dihydro-2H-benzo[1,4]oxazine], the IC50 is more than 1000 nM. `Clc1cccnc1N1CCOc2c(-c3nc4ccc(Br)cc4[nH]3)cccc21` [Example 21, 8-(6-bromo-1H-benzimidazol-2-yl)-4-(3-chloro-pyridin-2-yl)-3,4-dihydro-2H-benzo[1,4]oxazine]: the IC50 is 101 to 500 nM. For `Clc1ccc2nc(-c3cccc4c3OCCN4c3ncccc3Cl)[nH]c2c1` [Example 22, 8-(6-chloro-1H-benzimidazol-2-yl)-4-(3-chloro-pyridin-2-yl)-3,4-dihydro-2H-benzo[1,4]oxazine], the concentration for half-maximal inhibition (IC50) is more than 1000 nM. The figure for `Cc1ccc(N2CCOc3c(-c4nc5ccc(Br)cc5[nH]4)cccc32)nc1` [Example 26, 8-(6-bromo-1H-benzimidazol-2-yl)-4-(5-methyl-pyridin-2-yl)-3,4-dihydro-2H-benzo[1,4]oxazine] is 101 to 500 nM; for `Cc1ccc(N2CCOc3c(-c4nc5cc(Cl)ccc5[nH]4)cccc32)nc1` [Example 27, 8-(5-chloro-1H-benzimidazol-2-yl)-4-(5-methyl-pyridin-2-yl)-3,4-dihydro-2H-benzo[1,4]oxazine] it is 101 to 500 nM; for `Cc1ccc(N2CCOc3c(-c4nc5c(Cl)cc(C(F)(F)F)cc5[nH]4)cccc32)nc1` [Example 29, 8-(4-chloro-6-trifluoromethyl-1H-benzimidazol-2-yl)-4-(5-methyl-pyridin-2-yl)-3,4-dihydro-2H-benzo[1,4]oxazine] it is 101 to 500 nM.

As for `Cc1ccc(N2CCOc3c(-c4nc5c(C(F)(F)F)cc(C(F)(F)F)cc5[nH]4)cccc32)nc1` [Example 30, 8-(4,6-bis-trifluoromethyl-1H-benzimidazol-2-yl)-4-(5-methyl-pyridin-2-yl)-3,4-dihydro-2H-benzo[1,4]oxazine], the 50% inhibitory concentration (IC50) lay within 101 to 500 nM. As for `Cc1ccc(N2CCOc3c(-c4nc5c(Br)cc(Br)cc5[nH]4)cccc32)nc1` [Example 32, 8-(4,6-dibromo-1H-benzimidazol-2-yl)-4-(5-methyl-pyridin-2-yl)-3,4-dihydro-2H-benzo[1,4]oxazine], the concentration for half-maximal inhibition (IC50) lay within 101 to 500 nM. In the case of `Cc1ccc(N2c3cccc(-c4nc5c(Br)cc(OC(F)(F)F)cc5[nH]4)c3OC[C@@H]2CO)nc1` [Example 54, [(S)-8-(4-bromo-6-trifluoromethoxy-1H-benzimidazol-2-yl)-4-(5-methyl-pyridine-2-yl)-3,4-dihydro-2H-benzo[1,4]oxazin-3-yl]-methanol], the IC50 was less than 20 nM.

For `Cc1ccc(N2c3cccc(-c4nc5c(F)cc(F)cc5[nH]4)c3OC[C@@H]2CO)nc1` [Example 55, [(S)-8-(4,6-difluoro-1H-benzo[d]imidazol-2-yl)-4-(5-methyl-pyridin-2-yl)-3,4-dihydro-2H-benzo[b][1,4]oxazin-3-yl]-methanol], the 50% inhibitory concentration (IC50) is less than 20 nM. Consider `Cc1ccc(N2c3cccc(-c4nc5ccc(C#N)cc5[nH]4)c3OC[C@@H]2CO)nc1` [Example 56, (S)-2-(3-(hydroxymethyl)-4-(5-methyl-pyridin-2-yl)-3,4-dihydro-2H-benzo[b][1,4]oxazin-8-yl)-1H-benzo[d]imidazol-6-carbonitrile], for which the 50% inhibitory concentration (IC50) was 101 to 500 nM.

Turning to `C=Cc1ccc(N2c3cccc(-c4nc5ccc(C(C)(C)C)cc5[nH]4)c3OC[C@@H]2CO)nc1` [Example 57, [(S)-8-(6-tert-butyl-1H-benzimidazol-2-yl)-4-(5-vinyl-pyridin-2-yl)-3,4-dihydro-2H-benzo[1,4]oxazin-3-yl]-methanol], the half-inhibitory concentration (IC50) was 20 to 100 nM.

In the case of `C=Cc1ccc(N2c3cccc(-c4nc5ccc(C(F)(F)F)cc5[nH]4)c3OC[C@@H]2CO)nc1` [Example 58, [(S)-8-(6-trifluoromethyl-1H-benzimidazol-2-yl)-4-(5-vinyl-pyridin-2-yl)-3,4-dihydro-2H-benzo[1,4]oxazin-3-yl]-methanol], the half-maximal inhibitory concentration (IC50) lay in the range of 20 to 100 nM.

As for `C=Cc1ccc(N2c3cccc(-c4nc5ccc(F)cc5[nH]4)c3OC[C@@H]2CO)nc1` [Example 61, [(S)-8-(6-fluoro-1H-benzimidazol-2-yl)-4-(5-vinyl-pyridin-2-yl)-3,4-dihydro-2H-benzo[1,4]oxazin-3-yl]-methanol], the 50% inhibitory concentration (IC50) is 20 to 100 nM. Consider `C=Cc1ccc(N2c3cccc(-c4nc5c(F)cc(Br)cc5[nH]4)c3OC[C@@H]2CO)nc1` [Example 62, [(S)-8-(6-bromo-4-fluoro-1H-benzimidazol-2-yl)-4-(5-vinyl-pyridin-2-yl)-3,4-dihydro-2H-benzo[1,4]oxazin-3-yl]-methanol], for which the concentration for half-maximal inhibition (IC50) is less than 20 nM. On to `C=Cc1ccc(N2c3cccc(-c4nc5c(F)cc(F)cc5[nH]4)c3OC[C@@H]2CO)nc1` [Example 63, [(S)-8-(4,6-difluoro-1H-benzimidazol-2-yl)-4-(5-vinyl-pyridin-2-yl)-3,4-dihydro-2H-benzo[1,4]oxazin-3-yl]-methanol], for which the half-inhibitory concentration (IC50) was in the range of 20 to 100 nM. Regarding `C=Cc1ccc(N2c3cccc(-c4nc5c(Br)cc(C(F)(F)F)cc5[nH]4)c3OC[C@@H]2CO)nc1` [Example 64, [(S)-8-(4-bromo-6-trifluoromethyl-1H-benzimidazol-2-yl)-4-(5-vinyl-pyridin-2-yl)-3,4-dihydro-2H-benzo[1,4]oxazin-3-yl]-methanol], the 50% inhibitory concentration (IC50) is less than 20 nM.

In the case of `C=Cc1ccc(N2c3cccc(-c4nc5c(Cl)cc(C(F)(F)F)cc5[nH]4)c3OC[C@@H]2CO)nc1` [Example 65, [(S)-8-(4-chloro-6-trifluoromethyl-1H-benzimidazol-2-yl)-4-(5-vinyl-pyridin-2-yl)-3,4-dihydro-2H-benzo[1,4]oxazin-3-yl]-methanol], the half-inhibitory concentration (IC50) is less than 20 nM. Regarding `C=Cc1ccc(N2c3cccc(-c4nc5cc(F)c(Cl)cc5[nH]4)c3OC[C@@H]2CO)nc1` [Example 70, [(S)-8-(6-chloro-5-fluoro-1H-benzimidazol-2-yl)-4-(5-vinyl-pyridin-2-yl)-3,4-dihydro-2H-benzo[1,4]oxazin-3-yl]-methanol], the IC50 was in the range of 20 to 100 nM.
